Laboratory results taken from patent US11986452B2, “Methods of reducing the risk of heart failure” (Amarin Pharmaceuticals Ireland Limited, priority 2021, dated 2024).

Tests used:
[1] = REDUCE-IT safety: treatment-emergent adverse events, safety population
Protocol: All adverse events, including observed or volunteered problems, complaints, or symptoms, were recorded on the appropriate CRF. Each adverse event was evaluated for duration, intensity, and causal relationship with the study medication or other factors.
Adverse Events of Special Interest: Bleeding-related adverse events, glucose control (fasting blood glucose and HbA1c), and indicators of hepatic disorders (e.g., ALT or AST increases >3×ULN, total bilirubin increases of ≥2×ULN) were summarized separately and compared between treatment groups.
Analysis of Safety: All analyses of safety were conducted on the safety population, which was defined as all randomized patients. The safety assessment was based on the frequency of adverse events, physical exams, vital signs and safety laboratory tests. AEs with new onset during the study between the initiation of study drug and 30 days after the last dose of study drug for each patient was considered treatment-emergent (TEAEs). This included any AE with onset prior to initiation of study drug and increased severity after the treatment initiation.
This included overall incidence rates (regardless of severity and relationship to study drug), and incidence rates for moderate or severe adverse events. A summary of SAEs and adverse events leading to early discontinuation (for ≥30 days) were presented through data listings. Patients who restarted study drug were included in the summary of AEs leading to discontinuation. Safety laboratory tests and vital signs were summarized by post-treatment change from baseline for each of the parameters using descriptive statistics by treatment group. Those patients with significant laboratory abnormalities were identified in data listings. Additional safety parameters were summarized in data listings.

[2] = tested on: statin-treated patients with established atherosclerosis or diabetes plus risk factor; test: Example 2: recurrent and total ischemic events analysis (Andersen-Gill, Wei-Lin-Weissfeld); format: in vivo, human; settings: for Total key secondary endpoint events: HR vs placebo: without adjustment for stratification differences
Excerpt: The following study was a multi-center, placebo-controlled clinical trial the details of which are described above in Example 1, the REDUCE-IT design. […] Randomization was stratified by cardiovascular risk cohort (i.e., secondary or primary prevention), use of ezetimibe, and by geographic region.
The primary outcome for the study was total recurrent events consisting of the composite of cardiovascular death, nonfatal myocardial infarction, nonfatal stroke, coronary revascularization, or hospitalization for unstable angina. Recurrent event analyses were also performed for the key secondary endpoint, a composite of cardiovascular death, non-fatal myocardial infarction, or non-fatal stroke. For each of these composite endpoints, the effects of icosapent ethyl in the secondary and primary prevention strata were examined separately.
Demographic and baseline disease characteristics are presented using frequencies and percentages for categorical variables and medians with interquartile ranges for continuous variables. Between treatment group comparisons were derived using the chi-square test for categorical variables and Wilcoxon rank test for continuous variables. All clinical endpoint events used in the efficacy analyses were adjudicated by an independent Clinical Endpoint Committee (CEC) who were blinded to the treatment assignment. Since the primary efficacy endpoint was the time from randomization to the first occurrence of any component of the composite endpoint, and recurrence of such events within each patient is possible, a pre-specified analysis using a Cox proportional-hazard with the counting-process formulation of Andersen and Gill was performed to model the first and all recurrent cardiovascular events. Hazard ratios (HR) and corresponding 95% confidence intervals (CI) are reported from this model. In addition, as a marginal model and an extension of survival models based on the Cox proportional hazard model, the modified Wei-Lin-Weissfeld (WLW) method for analysis of recurrent events in the presence of deaths was carried out as a supportive analysis. In addition, as pre-specified, a recurrent event analysis using the Andersen-Gill and Wei-Lin-Weissfeld methods were carried out for the individual primary event components other than CV death. Though not pre-specified, additional recurrent event analyses were performed for the key secondary endpoint, which is a composite of CV death, non-fatal MI, or non-fatal stroke, and for the primary endpoint and the key secondary endpoint in the primary and secondary prevention strata to explore further the consistency of clinical benefit of icosapent ethyl. In subgroup analyses of the two cardiovascular risk strata (i.e., primary and secondary prevention), site-level discrepancies in cardiovascular risk group assignment occurring at entry and detected during the study (1.8%) were adjusted to conform with documented medical history data prior to randomization. All efficacy analyses were performed according to the intention-to-treat principle. All tests were based on a 2-sided nominal significance level of 5% with no adjustments for multiple comparisons.

[3] = safety population N = 4089, listed as AMR101
[4] = serious bleeding TEAE, safety population N = 4089

CC/C=C\C/C=C\C/C=C\C/C=C\C/C=C\CCCC(=O)OCC [icosapent ethyl, eicosapentaenoic acid ethyl ester]
Adverse event rate: anemia ([1]; 4 g/day): 4.7% | Adverse event rate: atrial fibrillation ([1]; 4 g/day): 5.3% | Adverse event rate: diarrhea ([1]; 4 g/day): 9% | Adverse event rate: gastrointestinal adverse events ([1]; 4 g/day): 33.0% | Adverse event rate: peripheral edema ([1]; 4 g/day): 6.5% | Atrial fibrillation or flutter requiring hospitalization (prespecified adjudicated tertiary endpoint) ([1]; 4 g/day): 3.1% | Tolerability; rates of serious adverse events versus placebo ([1]; in vivo): well tolerated | Serious TEAE ([1]; safety population N = 4089): (30.6%) | Serious TEAE (≥2%): Pneumonia ([1]; safety population N = 4089): 2.6% | Serious TEAE Leading to Death ([1]; safety population N = 4089): (2.3%) | Serious TEAE Leading to Withdrawal of Study Drug ([1]; safety population N = 4089): (2.2%) | Serious bleeding TEAE: Bleeding related disorders ([1]; safety population N = 4089): (2.7%) | Serious bleeding TEAE: Central nervous system bleeding ([1]; safety population N = 4089): (0.3%) | Serious bleeding TEAE: Gastrointestinal bleeding ([1]; safety population N = 4089): (1.5%) | Serious bleeding TEAE: Other bleeding ([1]; safety population N = 4089): (1.0%) | Subjects with at Least One TEAE ([1]; safety population N = 4089): (81.8%) | TEAE Leading to Withdrawal of Study Drug ([1]; safety population N = 4089): (7.9%) | Serious bleeding TEAE: Bleeding related disorders [1, 3]: 2.7% | Serious bleeding TEAE: Central nervous system bleeding [1, 3]: 0.3% | Serious bleeding TEAE: Gastrointestinal bleeding [1, 3]: 1.5% | Patients with Bleeding-Related Disorders, % [1, 4]: (2.7%) | Patients with Bleeding-Related Disorders, number [1, 4]: 111 | Total key secondary endpoint: HR vs placebo ([2]; primary prevention stratum): 0.71 | Total primary endpoint events: HR vs placebo ([2]; primary prevention stratum, adjusted stratification): 0.79 | Total primary endpoint events: HR vs placebo ([2]; primary prevention stratum, without adjusting for stratification differences): 0.86 | Total key secondary endpoint events: HR vs placebo ([2]; primary prevention): 0.78 | Total key secondary endpoint: HR vs placebo ([2]; secondary prevention stratum): 0.70 | Total primary endpoint events: HR vs placebo ([2]; secondary prevention stratum, adjusted stratification): 0.66 | Total primary endpoint events: HR vs placebo ([2]; secondary prevention stratum, without adjusting for stratification differences): 0.65 | Total key secondary endpoint events: HR vs placebo ([2]; secondary prevention stratum): 0.69
